Reference: ChEMBL document CHEMBL1201862, “PubChem BioAssay data set” (2004)
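Each compound was tested at five concentrations against cells in 96-well plates for 48 hours. Abbreviation: GI50, concentration required for 50% inhibition of growth.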 Calls of active or inactive are those of the source. No stated cut-off is given here; in the data, active = GI50 up to about 1.1 µM and inactive = higher.

What was measured:
Test in all cases: NCI tumour cell line growth inhibition, 48 h
[1] = system: HCC 2998
[2] = system: NCI-H460
[3] = system: ACHN
[4] = system: UACC-257
[5] = system: TK-10
[6] = system: SK-MEL-2
[7] = system: NCI-H23
[8] = system: MDA-MB-435
[9] = system: OVCAR-3
[10] = system: UACC-62
[11] = system: T47D
[12] = system: KM12
[13] = system: A549
[14] = system: SN12C
[15] = system: COLO 205
[16] = system: SK-MEL-28
[17] = system: CCRF-CEM
[18] = system: SK-OV-3
[19] = system: MDA-N

Compound	GI50 [1]	GI50 [2]	GI50 [3]	GI50 [4]	GI50 [5]	GI50 [6]	GI50 [7]	GI50 [8]	GI50 [9]	GI50 [10]	GI50 [11]	GI50 [12]	GI50 [13]	GI50 [14]	GI50 [15]	GI50 [16]	GI50 [17]	GI50 [18]	GI50 [19]
COc1cc2c(cc1OCCCOc1cc3c(cc1OC)C(=O)N1CCC[C@H]1C(=O)N3)N=C[C@@H]1CCCN1C2=O	14.3 µM (inactive)	19.9 µM (inactive)	17.1 µM (inactive)	24.5 µM (inactive)	25.8 µM (inactive)	12.6 µM (inactive)	23.6 µM (inactive)	15.8 µM (inactive)	19.5 µM (inactive)	6.62 µM (inactive)	7.94 µM (inactive)	16.4 µM (inactive)	22.1 µM (inactive)	15.7 µM (inactive)	3.61 µM (inactive)	21 µM (inactive)			
O=C1CCc2c3c(c4c([nH]c5ccccc54)c2CC1)C(=O)NC3=O	27.9 µM (inactive)	1.58 µM (inactive)	1.01 µM (active)	5.05 µM (inactive)	10.2 µM (inactive)	2.7 µM (inactive)	8.93 µM (inactive)	1.31 µM (inactive)	3.51 µM (inactive)	4.45 µM (inactive)	1.46 µM (inactive)	0.0942 µM (active)	7.05 µM (inactive)	4.32 µM (inactive)	0.63 µM (active)	3.14 µM (inactive)	2 µM (inactive)		
CN(C)c1ccc(/C=N\NC(=O)CSCC(=O)N/N=C/c2ccc(N(C)C)cc2)cc1		33.2 µM (inactive)	43.4 µM (inactive)	> 100 µM (inactive)	> 100 µM (inactive)	29.9 µM (inactive)	49.9 µM (inactive)	76.6 µM (inactive)	68.9 µM (inactive)	35.1 µM (inactive)	23.8 µM (inactive)	41.2 µM (inactive)	71.9 µM (inactive)	31.2 µM (inactive)	48 µM (inactive)	63.8 µM (inactive)	60.5 µM (inactive)	> 100 µM (inactive)	
Cc1cn([C@@H]2C[C@H](CO)[C@@H]2O)c(=O)[nH]c1=O	> 100 µM (inactive)	> 100 µM (inactive)	> 100 µM (inactive)	> 100 µM (inactive)	> 100 µM (inactive)	> 100 µM (inactive)	> 100 µM (inactive)	> 100 µM (inactive)	> 100 µM (inactive)			> 100 µM (inactive)	> 100 µM (inactive)	> 100 µM (inactive)	> 100 µM (inactive)	> 100 µM (inactive)	> 100 µM (inactive)		> 100 µM (inactive)
CCOC(=O)CC(=O)Nc1c(C(=O)OCC)sc2nc(SC)nc(Nc3ccc(OC)c(OC)c3)c12	> 100 µM (inactive)		19.8 µM (inactive)	> 100 µM (inactive)	17.8 µM (inactive)	25.6 µM (inactive)	19.1 µM (inactive)	> 100 µM (inactive)	10.7 µM (inactive)	24.6 µM (inactive)		80.5 µM (inactive)	0.36 µM (active)	60.3 µM (inactive)	> 100 µM (inactive)	> 100 µM (inactive)	> 100 µM (inactive)		> 100 µM (inactive)
NCCN1CC2CCC(CC2)C1	> 10 µM (inactive)	> 10 µM (inactive)	> 10 µM (inactive)	> 10 µM (inactive)	> 10 µM (inactive)	> 10 µM (inactive)	> 10 µM (inactive)	> 10 µM (inactive)	> 10 µM (inactive)	> 10 µM (inactive)	> 10 µM (inactive)	> 10 µM (inactive)	> 10 µM (inactive)	> 10 µM (inactive)	> 10 µM (inactive)	> 10 µM (inactive)	> 10 µM (inactive)	> 10 µM (inactive)	
O=C(C[n+]1ccccc1)N/N=C(\Cc1nc2ccc([N+](=O)[O-])cc2nc1O)C(=O)Nc1cc(Cl)c(Cl)cc1Cl	59 µM (inactive)	87.9 µM (inactive)	> 100 µM (inactive)	> 100 µM (inactive)		> 100 µM (inactive)	> 100 µM (inactive)	> 100 µM (inactive)	76 µM (inactive)	> 100 µM (inactive)	68.7 µM (inactive)	60.3 µM (inactive)	> 100 µM (inactive)	> 100 µM (inactive)	76.2 µM (inactive)	> 100 µM (inactive)	> 100 µM (inactive)	> 100 µM (inactive)	
CNC(=O)OC(C)CN1c2ccccc2Sc2ccccc21 (centres undefined)	> 100 µM (inactive)	57.3 µM (inactive)	83.8 µM (inactive)	> 100 µM (inactive)	> 100 µM (inactive)		> 100 µM (inactive)	80.2 µM (inactive)	> 100 µM (inactive)	> 100 µM (inactive)	> 100 µM (inactive)	> 100 µM (inactive)	86.3 µM (inactive)	> 100 µM (inactive)	41.2 µM (inactive)	> 100 µM (inactive)	> 100 µM (inactive)	> 100 µM (inactive)	
